{"source": "paper PMC3172300", "about": "“Modulation of Catalytic Activity in Multi-Domain Protein Tyrosine Phosphatases” (PLoS ONE, 2011)", "key": {"PTP99A D2": {"molecular_target": "T1, PTP99A D2 (Drosophila melanogaster, UniProt P35832)", "T1 sequence (P35832 740-1050)": "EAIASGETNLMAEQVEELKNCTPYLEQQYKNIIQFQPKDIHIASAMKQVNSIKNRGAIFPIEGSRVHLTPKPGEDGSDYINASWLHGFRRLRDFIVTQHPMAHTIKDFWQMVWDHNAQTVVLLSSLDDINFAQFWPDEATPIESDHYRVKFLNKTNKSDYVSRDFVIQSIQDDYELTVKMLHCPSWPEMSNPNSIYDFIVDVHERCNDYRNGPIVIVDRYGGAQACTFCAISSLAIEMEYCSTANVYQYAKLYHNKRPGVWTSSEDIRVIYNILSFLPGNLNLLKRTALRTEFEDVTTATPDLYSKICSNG", "experiment": "Phosphatase assay using pNPP, PTP99A D2", "type": "biochemical", "conditions": "CGH buffer pH 6.5", "description": "(§1) Phosphatase activity of the recombinant PTP domains was determined by using para-Nitrophenylphosphate (pNPP), a small molecule generic substrate, as well as phosphotyrosine containing peptides. The pNPP assay was performed as reported previously, with a modification in the buffer composition (25 mM Citrate, Glycine and HEPES (CGH), pH 6.5, 100 mM NaCl and 2 mM DTT). Phosphatase activity with the phosphotyrosine peptides was ascertained by the malachite green reaction as described for PTPs previously. Briefly, the reaction mixture comprised of 0.01 µM protein incubated with increasing concentrations of different peptides in 25 mM citrate buffer pH 6.0, 100 mM NaCl and 2 mM DTT for 15 min at 25°C. The reaction was stopped by the addition of the Biomol Green reagent (Enzo Life Sciences) and the colour developed after 20 min was quantified at 650 nm. For all the assays, kinetic constants for the steady state catalysis were obtained by fitting the reaction curves to the Michaelis-Menten equation using the nonlinear regression module of Sigma plot software (Systat Software, Inc.)."}, "PTP99A D1": {"molecular_target": "T2, PTP99A D1 (Drosophila melanogaster, UniProt P35832)", "T2 sequence (P35832 450-756)": "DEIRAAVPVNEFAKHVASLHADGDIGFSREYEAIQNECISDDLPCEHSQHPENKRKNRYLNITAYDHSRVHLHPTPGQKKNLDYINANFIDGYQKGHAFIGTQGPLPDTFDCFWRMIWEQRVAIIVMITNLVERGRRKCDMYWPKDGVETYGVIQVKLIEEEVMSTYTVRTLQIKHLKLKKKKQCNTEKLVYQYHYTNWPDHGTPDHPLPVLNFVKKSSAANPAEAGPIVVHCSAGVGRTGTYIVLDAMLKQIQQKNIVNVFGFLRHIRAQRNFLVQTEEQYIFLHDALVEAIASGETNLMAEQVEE", "experiment": "Phosphatase assay using pNPP, PTP99A D1", "type": "biochemical", "set-up": "PTP99A 450-756; His tag (pET-15b or pET-22b); made in house; host or cells: E. coli BL21(DE3)", "conditions": "CGH buffer pH 6.5, 100 mM NaCl, 2 mM DTT", "description": "as §1\nThe tandem PTP domains of PTP99A (PTP99A D1D2) and DLAR (DLAR D1D2) , the individual PTP domains (D1 and D2) as well as the active site mutants were expressed in E. coli and were purified using the protocols described earlier (Figure 1a, Figure S1a, b & c). […]"}, "DLAR D1HSS D2": {"molecular_target": "T3, DLAR D1HSS D2 (Drosophila melanogaster, UniProt P16621, C1670S)", "T3 construct": "DLAR 1448-2029; His tag (pET-15b or pET-22b); made in house; host or cells: E. coli BL21(DE3)", "T3 sequence (P16621 1448-2029 C1670S)": "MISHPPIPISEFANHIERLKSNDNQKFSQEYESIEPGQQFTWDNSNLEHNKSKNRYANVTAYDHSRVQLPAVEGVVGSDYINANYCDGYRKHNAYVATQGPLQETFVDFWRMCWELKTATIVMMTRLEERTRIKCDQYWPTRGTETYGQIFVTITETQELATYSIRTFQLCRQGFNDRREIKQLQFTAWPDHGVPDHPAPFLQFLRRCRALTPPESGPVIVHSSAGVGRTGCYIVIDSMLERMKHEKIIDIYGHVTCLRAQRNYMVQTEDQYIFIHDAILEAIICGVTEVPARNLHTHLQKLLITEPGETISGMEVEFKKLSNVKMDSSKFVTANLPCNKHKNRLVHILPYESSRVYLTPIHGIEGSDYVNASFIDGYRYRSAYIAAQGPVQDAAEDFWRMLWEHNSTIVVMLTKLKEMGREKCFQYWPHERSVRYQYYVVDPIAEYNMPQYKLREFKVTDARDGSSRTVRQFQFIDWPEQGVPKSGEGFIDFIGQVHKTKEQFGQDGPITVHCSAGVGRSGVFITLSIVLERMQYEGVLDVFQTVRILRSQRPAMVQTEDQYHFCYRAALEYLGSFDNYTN", "experiment": "Surface Plasmon Resonance peptide binding, DLAR D1HSS D2", "conditions": "two-site model, read-out: ka", "description": "The binding of phosphotyrosine peptides to the PTP domains was studied by Surface Plasmon Resonance on a Biacore-2000 instrument (BIAcore, AB). All experiments were conducted at 25°C. DLAR PTP domains were immobilized onto carboxylated dextran CM5 chips (BIAcore AB) using the standard amine coupling procedure as recommended by the manufacturer. Binding and kinetic assays were performed in 10 mM HEPES, pH 8.0, 150 mM NaCl, 10 mM DTT and 3 mM EDTA at a flow rate of 5 µL/min. The peptides were used at concentrations ranging from 50–700 µM. Dissociation was initiated by replacing the analyte with buffer. The association and dissociation curves were monitored for 600 sec. Sensograms were analyzed with BIA-evaluation software version 2 (BIAcore AB). Sensograms for DLAR D1D2, DLAR D1HSSD2 and DLAR D1D2HSS were fitted to two-site binding equations. DLAR D1 and DLAR D2 sensograms were fitted using a single-site binding model."}}, "note": "“And” between values parts separate entries of the source, which are not always exact repeats. Equal entries are not always repeated. Where two headings read alike, the source gives them in different places. Square brackets hold non-standard residues; d marks the D form. Peptide text beside a SMILES is read from it. pY = N[C@@H](Cc1ccc(OP(=O)(O)O)cc1)C(=O)O"}
{"smiles": "O=[N+]([O-])c1ccc(OP(=O)(O)O)cc1", "note": "[pNPP, para-Nitrophenylphosphate]", "values": [{"measurement": "PTPase activity", "setting": "PTP99A D2", "result": "no detectable activity"}, {"measurement": "Kcat", "setting": "PTP99A D1", "result": "0.14 ± 0.01", "unit": "s⁻¹"}, {"measurement": "Vmax", "setting": "PTP99A D1; Michaelis-Menten fit", "result": "0.22 µmol/min/mg and 0.22 ± 0.01 µmol/min/mg"}]}
{"smiles": "CC(C)C[C@H](NC(=O)[C@H](C)NC(=O)CNC(=O)[C@H](Cc1ccc(OP(=O)(O)O)cc1)NC(=O)[C@H](CC(=O)O)NC(=O)[C@@H]1CCCN1C(=O)[C@H](CCC(=O)O)NC(=O)[C@H](C)NC(=O)[C@@H](N)[C@@H](C)O)C(=O)N[C@@H](Cc1ccc(O)cc1)C(=O)N[C@@H](CCC(=O)O)C(=O)O", "note": "[Cuticle peptide] (H-TAEPD[pY]GALYE-OH)", "values": [{"measurement": "kon", "setting": "DLAR D1HSS D2; pH 8, SPR Biacore-2000, 25°C, 10 mM HEPES pH 8.0, 150 mM NaCl, 10 mM DTT, 3 mM EDTA, peptides 50–700 µM, first binding site", "result": "74.7 ± 2.41", "unit": "M⁻¹ s⁻¹"}, {"measurement": "kon", "setting": "DLAR D1HSS D2; pH 8, SPR, 25°C, pH 8.0, second binding site", "result": "28800 ± 8e+06", "unit": "M⁻¹ s⁻¹"}]}
